Measurements as given in patent US20230364153A1, “METHOD FOR DIRECT REPROGRAMMING FROM SOMATIC CELLS INTO PANCREATIC BETA CELLS BY USING MICRORNA, AND DIFFERENTIATION COMPOSITION” (Research & Business Foundation Sungkyunkwan University, priority 2020, published 2023).

Key:
[1] = test system: mouse embryonic fibroblasts (MEF); experiment: Proliferation / morphology of MEFs by bright field microscopy in stage-1 differentiation; assay type: cell-based; settings: after 48 hours (FIG. 3c)
Protocol: FIGS. 3a to 3c confirm the proliferative ability of mouse embryonic fibroblasts (MEF) following transfection with a miRNA mimic and combinations of miRNAs (miR-127, miR-709, and miR-19b) of the present disclosure.
(§1) MEFs (5×10^4 cells/well per 12-well plate) were transfected using the jetMESSENGER (Polyplus-Transfection, Illkirch, France) reagent according to the manufacturer's instructions. The miRNA to be infected (200 nM) (QIAGEN, Hilden, Germany) was diluted in mRNA buffer and 2 μL of the jetMESSENGER reagent was added thereto. The mixture was incubated at room temperature for 20 minutes and then added to MEFs, and 24 hours thereafter, a stage-specific medium was added thereto.

[2] = test system: mouse embryonic fibroblasts (MEFs); experiment: qRT-PCR of pancreatic lineage markers during three-stage direct reprogramming of MEFs; assay type: cell-based; settings: stage-1 cells, single miRNA transfected, relative to the mimic (FIG. 2a)
Protocol: as §1
For direct reprogramming of cells, knockout DMEM (KO-DMEM) (Gibco) was used as a basal medium. The knockout DMEM includes 15% knockout serum replacement (Gibco, Thermo Fisher Scientific, Inc., Waltham, MA, USA), 5% FBS (exosome depleted), 1% GlutaMax (Gibco, Thermo Fisher Scientific, Inc., Waltham, MA, USA), 1% Non-Essential Amino Acids (NEAA, Gibco, Thermo Fisher Scientific, Inc., Waltham, MA, USA), and 0.5 mM β-ME (Sigma Aldrich, Inc., Saint Louis, MO, USA).
The three-stage differentiation protocol of the present disclosure is as follows: Stage 1, differentiation from MEFs into pancreatic endoderm cells; Stage 2, differentiation of pancreatic endoderm cells into pancreatic progenitor-like cells; Stage 3, differentiation from pancreatic progenitor-like cells into beta-cell-like cells.
First, 5×10^4 MEF cells/well were seeded in a 12-well tissue culture plate of DMEM containing 10% FBS and 1×P/S for one day. The next day, a Stage 1 differentiation medium was added thereto. The Stage 1 differentiation medium contains 1 μM Bix-01294 (MedchemExpress, Monmouth Junction, NJ, USA), 280 μM 2-phospho-L-ascorbic acid (pVC) Sigma Aldrich, Inc., Saint Louis, MO, USA), and 50 ng/mL activin A (R&D Systems, Minneapolis, MI, USA). After addition of the medium, cells were maintained for 6 days. The medium used was replaced every 3 days. After 6 days, a Stage 2 differentiation medium was added for 4 days. […]
Statistical significance was determined by a two-way, paired student's t-test. […]

Substance	cell proliferation [1]	induction of Pdx1 expression [2]
miR-19b: microRNA, SEQ ID NO: 5, ugugcaaauccaugcaaaacuga (UGUGCAAAUCCAUGCAAAACUGA; listed as RNA, chemistry not given here)	highest cell proliferation	1.6 fold
miR-127: microRNA, SEQ ID NO: 1, CUGAAGCUCAGAGGGCUCUGAU	–	3.9 fold
miR-709: microRNA, SEQ ID NO: 2, GGAGGCAGAGGCAGGAGGA (listed as RNA, chemistry not given here)	–	3.2 fold
